Experimental data taken from patent US9375436B2, “Androgen treatment in females” (priority 2004, dated 2016).

Experiments:
[1] = system: women with diminished ovarian reserve; experiment: AMH as reflection of ovarian reserve after DHEA supplementation (Examples 9 and 12); type: in vivo, human
Description: The study is a cross-sectional analysis of 120 consecutive women with DOR in whom AMH levels were evaluated as a reflection of OR. They presented during 2007/8 to our center for initial infertility consultation. First AMH levels obtained were used for INITIAL analysis. Post DHEA initiation, exposure to the supplement ranged from 34 to 119 days (mean 73±27 days). Women with two or more consecutive AMH levels comprised patients in the longitudinal study evaluation of OR after initiation of DHEA supplementation. […]
FSH and estradiol were evaluated by standard enzyme-linked immunoabsorbent assay (ELISA; AIA-600II, Tohso, Tokyo, Japan). […] Theoretical sensitivity, or minimum detection limit, as calculated by interpolation of the mean plus two standard deviations (SD) of eight replicates of the 0 ng/ml MIS/AMH Standard, is 0.006 ng/ml. […]
Data are shown as means±standard deviation (SD) or as raw numbers and percentages. […] Demographic and biochemical data were analyzed with paired or unpaired Student's t-test. […]
The study is a cross-sectional and longitudinal analysis of 120 consecutive women with diminished ovarian reserve, in whom AMH concentrations were evaluated as a reflection of ovarian reserve. […]
FSH and oestradiol were evaluated by standard enzyme-linked immunoabsorbent assay (ELISA; AIA-600II, Tohso, Tokyo, Japan). […]

women with DOR = experiment: Matched case control study of embryo aneuploidy by preimplantation genetic screening (Example 11); type: in vivo, human
Description: In a 1:2, matched case control study, 22 consecutive women with DOR, supplemented with DHEA, underwent preimplantation genetic screening (PGS) of embryos during in vitro fertilization (IVF) cycles. Each was matched by patient age and time period of IVF with two control IVF cycles without DHEA supplementation (n=44). PGS was performed for chromosomes X, Y, 13, 16, 18, 21 and 22, and involved determination of numbers and percentages of aneuploid embryos.
We retrieved from our center's computerized research data bank a total of 22 consecutive DOR patients who underwent IVF/PGS while on DHEA supplementation. Only first IVF cycles were analyzed. These cycles were matched with the two control cycles not on DHEA supplementation, based on patient age and year of treatment (44 controls).
Normal age-specific hormone levels were defined by 95% confidence intervals at all ages, as previously reported. Since patients with DOR were, thus, uniformly diagnosed before IVF cycle protocols were determined, they were all supplemented with DHEA, and stimulation adjustments were made.
During the study period all DOR patients at our center routinely received DHEA supplementation. Those not receiving DHEA, therefore, by definition, had age-appropriate ovarian reserve, confirmed by normal anti-Müllerian hormone (AMH), follicle stimulating hormone (FSH) baseline levels and estradiol. Patients receiving DHEA supplementation were prescribed 25 mg of micronized, pharmaceutical grade DHEA, T.I.D, for at least four weeks prior to IVF cycle start. Short-term supplementation was defined as 4 to 12 weeks of DHEA prior to IVF and PGS; supplementation beyond that was considered long-term supplementation.
Patients with premature DOR, or if over 40 years of age, in first treatment cycles universally receive a so-called microdose gonadotropin releasing hormone agonist (GnRH-a) ovarian stimulation protocol, characterized by leuprolide acetate (50 μg/0.1 mL, b.i.d.; Lupron®, Abbot Pharmaceuticals, North Chicago, Ill.) and ovarian stimulation with follicle stimulating hormone (FSH, 300 IU-450 IU daily) and human menopausal gonadotropins (hMG, 150 IU). If under age 40 with normal ovarian reserve patients receive down regulation with full dose GnRH-a (1.0 mg/0.1 mL) and ovarian stimulation with up to 300 IU of gonadotropins, usually half as FSH and half as hMG. Higher luteinizing hormone (LH) contributions to ovarian stimulation, if anything, reduce embryo aneuploidy. The small difference in ovarian stimulation protocols between women with DOR and controls, therefore, potentially biases study outcome towards lower aneuploidy rates in the control population, which received a proportionally higher LH contributions to ovarian stimulation.
PGS was performed, utilizing fluorescence in situ hybridization (FISH) in routine fashion, utilizing probes for seven chromosomes (X, Y, 13, 16, 18, 21 and 22) on day three after fertilization, when embryos reached six to eight cell stages. This restricted chromosome panel is currently routinely utilized for PGS.
A general linear model was constructed to assess DHEA effects on percent aneuploidy after adjustment for age, indications for PGS, stimulation protocol and total gonadotropin dosage utilized. The latter adjustment was made as a surrogate for potential physician biases in how individual patients were stimulated, and potential effects such stimulation biases may have on ploidy.

[2] = DHEA patients n=22, PGS by FISH, seven chromosomes

C[C@]12CC[C@H](O)CC1=CC[C@@H]1[C@@H]2CC[C@]2(C)C(=O)CC[C@@H]12 [DHEA, Dehydroepiandrosterone]
clinical pregnancy rate ([1]; 55 women who reached IVF, 13 conceived): 23.64% | AMH at highest measured peak ([1]; longitudinal evaluation, n=55, baseline before DHEA 0.22±0.22, DHEA 25 mg TID): 0.35 ± 0.03 ng/mL | Embryo Grades (mean ± SD) (women with DOR; DHEA patients n=22): 3.4±0.4 | Embryos Cryopreserved (n, mean ± SD) (women with DOR; DHEA patients n=22): 0.7±1.6 | Embryos Transferred (n, mean ± SD) (women with DOR; DHEA patients n=22): 1.4±0.9 | Embryos Undergoing PGS (n, mean ± SD) (women with DOR; DHEA patients n=22): 7.3±3.9 | Oocytes retrieved (n, mean ± SD) (women with DOR; DHEA patients n=22, 25 mg T.I.D. at least four weeks): 9.6±6.2 | aneuploid embryos (absolute number) (women with DOR; [2]): 2.8±2.5 | percentages of aneuploidy (women with DOR; [2]): 38.2±24.4 | reduction in aneuploidy (women with DOR; short term supplementation (4-12 weeks), 95% CI -2.871-46.031): 21.6%
